Test results as given in BindingDB's records for doi:10.7270/Q2RX99Q9 (The Scripps Research Institute Molecular Screening Center, 2013).

The molecules below were run against Albumin (Bos taurus, UniProt P02769).
Albumin, sequence (P02769 whole entry): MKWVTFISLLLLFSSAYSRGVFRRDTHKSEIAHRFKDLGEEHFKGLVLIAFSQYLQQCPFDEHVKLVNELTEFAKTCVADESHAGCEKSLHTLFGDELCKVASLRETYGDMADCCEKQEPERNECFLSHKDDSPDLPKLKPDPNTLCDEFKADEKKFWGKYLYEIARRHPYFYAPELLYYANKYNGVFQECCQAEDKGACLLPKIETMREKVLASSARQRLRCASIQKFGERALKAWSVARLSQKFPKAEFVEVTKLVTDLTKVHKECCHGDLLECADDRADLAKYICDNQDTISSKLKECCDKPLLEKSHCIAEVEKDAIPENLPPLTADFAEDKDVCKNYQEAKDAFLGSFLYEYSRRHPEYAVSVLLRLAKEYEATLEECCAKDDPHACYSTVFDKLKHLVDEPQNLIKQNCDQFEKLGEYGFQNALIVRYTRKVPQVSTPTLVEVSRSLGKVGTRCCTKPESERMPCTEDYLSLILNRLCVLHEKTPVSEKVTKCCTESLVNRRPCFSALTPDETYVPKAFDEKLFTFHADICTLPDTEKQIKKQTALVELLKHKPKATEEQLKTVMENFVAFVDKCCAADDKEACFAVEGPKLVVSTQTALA
COC1=CC([N+](=O)[O-])=CC(/C=N/NC(=O)c2cc(C)nc3ccccc23)C1=O (stereo not drawn) showed an IC50 greater than 94.1 µM.
Cc1cc2cc(CNC(=O)c3ccc(C)c([N+](=O)[O-])c3)ccc2[nH]1 [MLS000724615] was tested, and the IC50 was greater than 94.1 µM.
CC1=CC([N+](=O)[O-])=CC(/C=N/NC(=O)C2COc3ccccc3O2)C1=O (stereo not drawn) [N'-[(E)-(5-methyl-3-nitro-6-oxocyclohexa-2,4-dien-1-ylidene)methyl]-2,3-dihydro-1,4-benzodioxine-3-carbohydrazide] gave an IC50 greater than 94.2 µM.
With O=[N+]([O-])c1cc(Br)c(O)c(CN=Nc2nnnn2-c2cccc3ccccc23)c1 [(6E)-2-bromo-6-[[2-(1-naphthalen-1-yltetrazol-5-yl)hydrazinyl]methylidene]-4-nitrocyclohexa-2,4-dien-1-one] the IC50 was greater than 94.1 µM.
Molecule COc1ccc(CC(=O)N/N=C/C2C=C([N+](=O)[O-])C=C(Br)C2=O)cc1 (stereo not drawn) has an IC50 greater than 94.1 µM.
In the case of O=C1C([N+](=O)[O-])=CC=CC1/C=N/n1cnc2scc(-c3ccc(Cl)cc3)c2c1=O (stereo not drawn) [SMR000314525], the IC50 is reported as greater than 94.1 µM.
Cc1cc(C(=O)NN=CC2C=C(Cl)C=C([N+](=O)[O-])C2=O)[nH]n1 (stereo not drawn) [SMR000414694] was tested, and the IC50 was greater than 94.1 µM.
Nc1nnc(CC(=O)N/N=C/C2C=C([N+](=O)[O-])C=CC2=O)s1 (stereo not drawn) [2-(5-amino-1,3,4-thiadiazol-2-yl)-N'-[(E)-(3-nitro-6-oxo-1-cyclohexa-2,4-dienylidene)methyl]acetohydrazide] was tested, and the IC50 was greater than 94.1 µM.
Work on O=C(NN=CC1=CC(=O)C(=O)CC1)NN=CC1=CC(=O)C(=O)CC1 [1,3-bis[[(Z)-(3-hydroxy-4-oxocyclohexa-2,5-dien-1-ylidene)methyl]amino]urea] yielded an IC50 greater than 94.1 µM.
Cc1c(NC(=S)NN=CC2C=C([N+](=O)[O-])C=CC2=O)c(=O)n(-c2ccccc2)n1C (stereo not drawn) [SMR000415003] gave an IC50 greater than 94.1 µM.
For Cc1cc(C(=O)N/N=C/C2C=C(Cl)C=C([N+](=O)[O-])C2=O)c2ccccc2n1 (stereo not drawn) [N'-[(E)-(3-chloranyl-5-nitro-6-oxidanylidene-cyclohexa-2,4-dien-1-ylidene)methyl]-2-methyl-quinoline-4-carbohydrazide], the IC50 was greater than 94.1 µM.
O=C(N/N=C/C1C=C([N+](=O)[O-])C=C([N+](=O)[O-])C1=O)/C(=C\c1cccs1)NC(=O)c1ccccc1 (stereo not drawn) [SMR000207704] gave an IC50 greater than 94.1 µM.
Cc1ccc(C(=O)Nc2nc(C(C)(C)C)cs2)s1 [N-(4-tert-butyl-2-thiazolyl)-5-methyl-2-thiophenecarboxamide] was tested, and the IC50 was greater than 94.1 µM.
CC1=CC(/C=N/n2c(CO[N-][C+](C)c3ccccc3)nc3ccccc3c2=O)C(=O)C([N+](=O)[O-])=C1 (stereo not drawn) was tested, and the IC50 was greater than 94.1 µM.
Oc1ccc(CN=Nc2ncnc3c2ncn3Cc2ccccc2)cc1O [(4Z)-2-oxidanyl-4-[[2-[9-(phenylmethyl)purin-6-yl]hydrazinyl]methylidene]cyclohexa-2,5-dien-1-one] showed an IC50 greater than 94.1 µM.
O=C1C([N+](=O)[O-])=CC(Cl)=CC1C=NNC(=S)Nc1ccc(S(=O)(=O)N2CCOCC2)cc1 (stereo not drawn) [1-[[(E)-(3-chloro-5-nitro-6-oxo-1-cyclohexa-2,4-dienylidene)methyl]amino]-3-[4-(4-morpholinylsulfonyl)phenyl]thiourea] showed an IC50 greater than 94.1 µM.
O=C1C=CC([N+](=O)[O-])=CC1C=NNC(=S)Nc1ccc(Cl)cc1Cl (stereo not drawn) [MLS000777079] gave an IC50 greater than 94.1 µM.
For COc1ccc(C(=O)CC=NNC(=O)c2ccc(Cl)cc2)cc1 [SMR000499516], the IC50 was greater than 94.1 µM.
Cc1cc(C(=O)N/N=C/C2C=C(Br)C=C([N+](=O)[O-])C2=O)c2ccccc2n1 (stereo not drawn) [MLS000585468] gave an IC50 greater than 94.1 µM.
Oc1c(Br)cc(CC=Nc2cc(O)c3cccnc3c2O)cc1Br [7-[2-(3,5-dibromo-4-hydroxyphenyl)ethylamino]quinoline-5,8-dione] showed an IC50 greater than 94.2 µM.
For Cc1ccccc1C(=O)Nc1cccc(C(=O)N/N=C/C2C=C(Cl)C=C([N+](=O)[O-])C2=O)c1 (stereo not drawn) [N-(3-{[(2E)-2-(5-chloro-2-hydroxy-3-nitrobenzylidene)hydrazino]carbonyl}phenyl)-2-methylbenzamide], the IC50 was greater than 94.1 µM.
O=C(N/N=C/C1C=C([N+](=O)[O-])C=CC1=O)/C(=C\c1cccs1)NC(=O)c1ccccc1 (stereo not drawn) [MLS000332530] was tested, and the IC50 was greater than 94.1 µM.
Molecule COC1=CC(=O)C(/C=N/NC(=O)c2ccncc2)C(OC)=C1[N+](=O)[O-] (stereo not drawn) [MLS000673335] has an IC50 greater than 94.1 µM.
Molecule O=C(N/N=C/C1C=CC=C([N+](=O)[O-])C1=O)c1cccs1 (stereo not drawn) has an IC50 greater than 94.1 µM.
O=C(N/N=C/C1C=C(Cl)C=C([N+](=O)[O-])C1=O)c1cccc(S(=O)(=O)N2CCOCC2)c1 (stereo not drawn) [MLS002155639] showed an IC50 greater than 94.1 µM.
With CC1=CC([N+](=O)[O-])=CC(/C=N/n2c(C)nc3ccccc3c2=O)C1=O (stereo not drawn) [MLS000778735] the IC50 was greater than 94 µM.
For C=CCN1C(=O)/C(=N\NC(=O)CNC(=O)/C=C/c2ccco2)c2ccccc21 [(E)-N-[1-Allyl-2-oxo-1,2-dihydro-indol-(3Z)-ylidene-hydrazinocarbonylmethyl]-3-furan-2-yl-acrylamide], the IC50 was greater than 94.1 µM.
O=C(N/N=C/C1C=C([N+](=O)[O-])C=CC1=O)c1cccc(N2CCCC2=O)c1 (stereo not drawn) was tested, and the IC50 was greater than 94.1 µM.
Molecule O=C1CC(=O)c2c(O)cc(O)c(O)c2C1=O [4,5,7,8-tetrahydroxy-1,2-naphthoquinone] has an IC50 greater than 94.1 µM.
O=C(CNC(=O)c1ccccc1Br)N/N=C/C1C=C([N+](=O)[O-])C=C(Br)C1=O (stereo not drawn) [2-bromanyl-N-[2-[2-[(E)-(5-bromanyl-3-nitro-6-oxidanylidene-cyclohexa-2,4-dien-1-ylidene)methyl]hydrazinyl]-2-oxidanylidene-ethyl]benzamide] showed an IC50 greater than 94.1 µM.
Molecule Cc1cc(=O)oc2cc(OCC(=O)N/N=C/C3C=C([N+](=O)[O-])C=CC3=O)ccc12 (stereo not drawn) [MLS000588734] has an IC50 greater than 94.1 µM.
Molecule CC1=CC(/C=N/n2c(COc3ccccc3C)nc3ccccc3c2=O)C(=O)C([N+](=O)[O-])=C1 (stereo not drawn) has an IC50 greater than 94.1 µM.
Work on O=C(NC(C(=O)NN=CC1C=C([N+](=O)[O-])C=CC1=O)c1n[nH]c(=O)c2ccccc12)c1ccccc1 (stereo not drawn) [N-[2-[2-[(E)-(3-nitro-6-oxidanylidene-cyclohexa-2,4-dien-1-ylidene)methyl]hydrazinyl]-2-oxidanylidene-1-(4-oxidanylidene-3H-phthalazin-1-yl)ethyl]benzamide] yielded an IC50 greater than 94.1 µM.
Work on CCc1n[nH]c(=S)n1N=CC1C=C(OC)C=C([N+](=O)[O-])C1=O (stereo not drawn) [(6E)-6-[[(3-ethyl-5-sulfanylidene-1H-1,2,4-triazol-4-yl)amino]methylidene]-4-methoxy-2-nitro-1-cyclohexa-2,4-dienone] yielded an IC50 greater than 94.1 µM.
O=C(CSc1nc2ccccc2s1)N/N=C/C1C=C([N+](=O)[O-])C=CC1=O (stereo not drawn) [MLS000777065] gave an IC50 greater than 94.1 µM.
CCOC(=O)c1c(C)[nH]c(C(=O)N/N=C/C2C=C([N+](=O)[O-])C=CC2=O)c1C (stereo not drawn) [ethyl 2,4-dimethyl-5-[[[(E)-(3-nitro-6-oxocyclohexa-2,4-dien-1-ylidene)methyl]amino]carbamoyl]-1H-pyrrole-3-carboxylate] showed an IC50 greater than 94.1 µM.
In the case of CN1C(=O)C(C=NNC(=O)c2cc3ccccc3cc2O)c2ccccc21 (stereo not drawn) [MLS000912237], the IC50 is reported as greater than 94.1 µM.
O=C(O)c1ccccc1NS(=O)(=O)c1ccc(N=NCc2ccc(O)c(O)c2)c([N+](=O)[O-])c1 [SMR001238114] gave an IC50 greater than 94.1 µM.
Molecule O=C(N/N=C/C1C=C(Cl)C=C([N+](=O)[O-])C1=O)c1ccc2c(c1)OCO2 (stereo not drawn) [N'-[(E)-(3-chloranyl-5-nitro-6-oxidanylidene-cyclohexa-2,4-dien-1-ylidene)methyl]-1,3-benzodioxole-5-carbohydrazide] has an IC50 greater than 94.1 µM.
O=Nc1[nH]c(=O)c(CC(=O)c2ccccc2)nc1NO [SMR000539633] gave an IC50 greater than 94.2 µM.
O=C1C=CC([N+](=O)[O-])=CC1/C=N/n1c(COc2ccccc2)nc2ccccc2c1=O (stereo not drawn) [3-[[(E)-(3-nitro-6-oxocyclohexa-2,4-dien-1-ylidene)methyl]amino]-2-(phenoxymethyl)quinazolin-4-one] showed an IC50 greater than 94.1 µM.
For CCOC(=O)C1C(CC)=Nc2ccccc2N=C1NC(=O)Nc1ccc(Cl)c(Cl)c1 (stereo not drawn), the IC50 was greater than 94.1 µM.
CC(NNC(=O)c1ccc(-c2ccccc2)cc1)=C1C(=O)c2ccccc2C1=O [N-[(E)-1-(1,3-dioxoinden-2-yl)ethylideneamino]-4-phenylbenzamide] gave an IC50 greater than 94.1 µM.
